# Results as given in paper PMC9633730, “Endowing homodimeric carbamoyltransferase GdmN with iterative functions through structural characterization and mechanistic studies” (Nature Communications, 2022).
# Legend:
# [1] = target: T1, GdmN (Streptomyces hygroscopicus, UniProt Q84G19, V24Y/G157A/R158A/G188R); experiment: X-ray co-crystal structure; type: binding; conditions: reaction intermediate formed from ATP, MgCl2 and carbamoyl phosphate; carbamoyl group rotated
# T1 construct: homodimer; Kae1-like M1-L351, YrdC-like G368-A571, dimerization domain D574-L674; one iron ion per monomer
# T1 sequence (Q84G19 entry or part of it V24Y/G157A/R158A/G188R): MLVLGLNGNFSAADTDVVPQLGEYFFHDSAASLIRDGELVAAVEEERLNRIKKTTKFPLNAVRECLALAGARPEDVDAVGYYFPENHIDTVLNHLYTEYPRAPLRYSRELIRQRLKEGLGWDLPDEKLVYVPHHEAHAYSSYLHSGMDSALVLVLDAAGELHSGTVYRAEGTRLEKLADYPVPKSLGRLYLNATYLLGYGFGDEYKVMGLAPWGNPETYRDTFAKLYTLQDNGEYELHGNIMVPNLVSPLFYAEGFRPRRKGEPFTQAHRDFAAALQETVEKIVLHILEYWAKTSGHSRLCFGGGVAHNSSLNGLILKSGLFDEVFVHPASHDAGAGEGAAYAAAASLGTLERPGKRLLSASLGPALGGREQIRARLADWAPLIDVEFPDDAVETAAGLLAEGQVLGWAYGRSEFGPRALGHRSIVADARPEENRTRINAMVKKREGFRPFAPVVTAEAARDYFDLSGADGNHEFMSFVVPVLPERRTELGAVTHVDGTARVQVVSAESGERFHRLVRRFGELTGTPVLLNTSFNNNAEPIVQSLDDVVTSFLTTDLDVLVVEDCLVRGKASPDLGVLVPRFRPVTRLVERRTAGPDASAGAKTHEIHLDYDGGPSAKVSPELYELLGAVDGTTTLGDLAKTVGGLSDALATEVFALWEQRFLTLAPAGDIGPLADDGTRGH
# [2] = target: GdmN (Streptomyces hygroscopicus XM201); experiment: SEC; Superdex 200 Increase 10/300 GL, buffer C (10 mM Tris, 150 mM NaCl, pH 8.0), calibrated with Bio-Rad gel filtration standards; monomer to dimer
stoichiometry N [2],Compound,X-ray co-crystal structure [1]
,NC(=O)OP(=O)(O)OC[C@H]1O[C@@H](n2cnc3c(N)ncnc32)[C@H](O)[C@@H]1O [carbamoyl-AMP],complex of GdmN V24Y/G157A/R158A/G188R mutant with carbamoyl-AMP (PDB: 7VZQ)
2,GdmN (enzyme),
